{"source": "DBAASP", "experiment_in_all_cases": "≥ marks a high value that may be exact or a test limit, other limits are often not marked, values filed in µg/mL are converted to µM", "key": {"[1]": {"test_system": "Bacillus subtilis ATCC 6633"}, "[2]": {"test_system": "Escherichia coli DH5alpha"}, "[3]": {"test_system": "Escherichia coli DSM 1103"}, "[4]": {"test_system": "Kocuria rhizophila DSM 348"}, "[5]": {"test_system": "Micrococcus luteus DSM 1790"}, "[6]": {"test_system": "Staphylococcus aureus DSM 1104"}, "[7]": {"test_system": "Bacillus subtilis ATCC 62037"}, "[8]": {"test_system": "Candida albicans ATCC 10231"}, "[9]": {"test_system": "Escherichia coli ATCC 27325"}, "[10]": {"test_system": "Pseudomonas putida ATCC 17426"}, "[11]": {"test_system": "Saccharomyces cerevisiae ATCC 44774"}, "[12]": {"test_system": "Salmonella enterica subsp. enterica serovar Enteritidis ATCC 13076"}, "[13]": {"test_system": "Staphylococcus aureus ATCC 15752"}, "[14]": {"test_system": "Streptococcus mutans ATCC 25175"}, "[15]": {"test_system": "Bacillus cereus AS1.126"}, "[16]": {"test_system": "Bacillus cereus"}, "[17]": {"test_system": "Bacillus subtilis"}, "[18]": {"test_system": "Candida albicans CCM 8186"}, "[19]": {"test_system": "Candida albicans CMCC 98001"}, "[20]": {"test_system": "Candida albicans PCM 2566"}, "[21]": {"test_system": "Candida glabrata CCM 8270"}, "[22]": {"test_system": "Candida krusei CCM 8271"}, "[23]": {"test_system": "Candida parapsilosis CCM 8260"}, "[24]": {"test_system": "Candida tropicalis CCM 8264"}, "[25]": {"test_system": "Enterobacter cloacae CGMCC 1.58"}, "[26]": {"test_system": "Enterococcus faecalis CGMCC 1.595"}, "[27]": {"test_system": "Enterococcus faecium CGMCC 1.2334"}, "[28]": {"test_system": "Escherichia coli AS1.349"}, "[29]": {"test_system": "Escherichia coli PCM 2057"}, "[30]": {"test_system": "Fusobacterium nucleatum CGMCC 1.2526"}, "[31]": {"test_system": "Klebsiella pneumoniae subsp. pneumoniae CGMCC 1.176"}, "[32]": {"test_system": "Lactobacillus acidophilus CGMCC 1.1854"}, "[33]": {"test_system": "Proteus mirabilis CICC 22931"}, "[34]": {"test_system": "Pseudomonas aeruginosa CGMCC 1.860"}, "[35]": {"test_system": "Pseudomonas aeruginosa PCM 499"}, "[36]": {"test_system": "Staphylococcus aureus AS1.72"}, "[37]": {"test_system": "Staphylococcus aureus PCM 2054"}, "[38]": {"test_system": "Staphylococcus aureus PMC 1650"}, "[39]": {"test_system": "Staphylococcus epidermidis CICC 23664"}, "[40]": {"test_system": "Staphylococcus epidermidis PCM 2118"}, "[41]": {"test_system": "Staphylococcus epidermidis PCM 521"}, "[42]": {"test_system": "Streptococcus mutans CGMCC 1.2500"}, "[43]": {"test_system": "Streptococcus salivarius CGMCC 1.2498"}, "[44]": {"test_system": "Streptococcus sanguinis CGMCC 1.2497"}, "[45]": {"test_system": "Escherichia coli KCTC 2223"}, "[46]": {"test_system": "Micrococcus luteus ATCC 10240"}, "[47]": {"test_system": "Salmonella typhimurium KCTC 2370"}, "[48]": {"test_system": "Streptococcus pneumoniae BCRC 10794"}}, "note": "Several values for one entry are separate records, joined by “and”; a condition that tells them apart may be missing. Equal entries are not always repeated.", "data": [{"smiles": "CC[C@H](C)[C@H](NC(=O)[C@H](CCCCN)NC(=O)CNC(=O)[C@H](C)NC(=O)[C@@H](NC(=O)[C@H](CCCCN)NC(=O)[C@H](C)NC(=O)[C@@H](NC(=O)[C@H](CCCCN)NC(=O)CNC(=O)[C@H](C)NC(=O)[C@@H](NC(=O)[C@H](CCCCN)NC(=O)[C@H](C)NC(=O)[C@@H](NC(=O)[C@H](CCCCN)NC(=O)CNC(=O)[C@H](C)NC(=O)[C@@H](NC(=O)[C@@H](N)CCCCN)[C@@H](C)CC)[C@@H](C)CC)[C@@H](C)CC)[C@@H](C)CC)[C@@H](C)CC)C(=O)N[C@@H](C)C(=O)O", "note": "[KIAGKIAKIAGKIAKIAGKIA]", "values": [{"measurement": "MIC", "setting": "[1]", "value": 3.88, "unit": "µM"}, {"measurement": "MIC", "setting": "[2]", "value": 7.75, "unit": "µM"}, {"measurement": "MIC", "setting": "[3]", "value": 3.88, "unit": "µM"}, {"measurement": "MIC", "setting": "[4]", "value": "≥ 62", "unit": "µM"}, {"measurement": "MIC", "setting": "[5]", "value": 7.75, "unit": "µM"}, {"measurement": "MIC", "setting": "[6]", "value": "≥ 62", "unit": "µM"}]}, {"smiles": "CC[C@H](C)[C@H](NC(=O)[C@@H]1CCCN1C(=O)[C@H](Cc1c[nH]c2ccccc12)NC(=O)[C@H](CCC(N)=O)NC(=O)[C@H](CCCN=C(N)N)NC(=O)[C@@H](NC(=O)[C@@H](NC(=O)[C@@H](N)CCCN=C(N)N)C(C)C)C(C)C)C(=O)NCC(=O)N[C@@H](CCCN=C(N)N)C(=O)N[C@H](C(=O)N[C@H](C(=O)N[C@@H](CCCN=C(N)N)C(=O)N[C@@H](CCCN=C(N)N)C(=O)N[C@H](C(=O)N[C@H](C(=O)N[C@@H](CCCN=C(N)N)C(=O)N[C@@H](CCCN=C(N)N)C(=O)N[C@H](C(=O)N[C@H](C(=O)N[C@@H](CCCN=C(N)N)C(=O)N[C@@H](Cc1ccc(O)cc1)C(=O)O)C(C)C)C(C)C)C(C)C)C(C)C)C(C)C)C(C)C", "note": "[RVVRQWPIGRVVRRVVRRVVRY]", "values": [{"measurement": "MIC", "setting": "[7]", "value": 0.713, "unit": "µM"}, {"measurement": "MIC", "setting": "[8]", "value": 1.43, "unit": "µM"}, {"measurement": "MIC", "setting": "[9]", "value": 1.43, "unit": "µM"}, {"measurement": "MIC", "setting": "[10]", "value": 0.713, "unit": "µM"}, {"measurement": "MIC", "setting": "[11]", "value": 0.356, "unit": "µM"}, {"measurement": "MIC", "setting": "[12]", "value": 0.713, "unit": "µM"}, {"measurement": "MIC", "setting": "[13]", "value": 0.713, "unit": "µM"}, {"measurement": "MIC", "setting": "[14]", "value": 0.713, "unit": "µM"}]}, {"smiles": "CC[C@H](C)[C@H](N)C(=O)N[C@@H](CCCCN)C(=O)N[C@@H](CCCCN)C(=O)N[C@H](C(=O)N[C@@H](CC(C)C)C(=O)N[C@@H](CO)C(=O)N[C@@H](CCCCN)C(=O)N[C@H](C(=O)N[C@@H](CCCCN)C(=O)N[C@@H](CCCCN)C(=O)N[C@@H](CC(C)C)C(=O)N[C@@H](CC(C)C)C(=O)N[C@@H](CCCCN)C(N)=O)[C@@H](C)CC)[C@@H](C)CC", "note": "[IKKILSKIKKLLK]", "values": [{"measurement": "MIC", "setting": "[15]", "value": 6.25, "unit": "µM"}, {"measurement": "MIC", "setting": "[16]", "value": "≥ 32.2", "unit": "µM"}, {"measurement": "MIC", "setting": "[17]", "value": 5.02, "unit": "µM"}, {"measurement": "MIC", "setting": "[18]", "value": 20.2, "unit": "µM"}, {"measurement": "MIC", "setting": "[19]", "value": 6.25, "unit": "µM"}, {"measurement": "MIC", "setting": "[20]", "value": "≥ 32.2", "unit": "µM"}, {"measurement": "MIC", "setting": "[21]", "value": "20.2 µM and 20.1 µM"}, {"measurement": "MIC", "setting": "[22]", "value": "5.02 µM and 8.05 µM"}, {"measurement": "MIC", "setting": "[23]", "value": "5.02 µM and 8.05 µM"}, {"measurement": "MIC", "setting": "[24]", "value": 1.29, "unit": "µM"}, {"measurement": "MIC", "setting": "[25]", "value": "≥ 100", "unit": "µM"}, {"measurement": "MIC", "setting": "[26]", "value": 3.13, "unit": "µM"}, {"measurement": "MIC", "setting": "[27]", "value": 5, "unit": "µM"}, {"measurement": "MIC", "setting": "[28]", "value": 3.13, "unit": "µM"}, {"measurement": "MIC", "setting": "[29]", "value": "≥ 80.5", "unit": "µM"}, {"measurement": "MIC", "setting": "[30]", "value": 4.69, "unit": "µM"}, {"measurement": "MIC", "setting": "[31]", "value": "≥ 100", "unit": "µM"}, {"measurement": "MIC", "setting": "[32]", "value": 3.13, "unit": "µM"}, {"measurement": "MIC", "setting": "[33]", "value": "≥ 100", "unit": "µM"}, {"measurement": "MIC", "setting": "[34]", "value": 6.25, "unit": "µM"}, {"measurement": "MIC", "setting": "[35]", "value": 16.1, "unit": "µM"}, {"measurement": "MIC", "setting": "[36]", "value": 5, "unit": "µM"}, {"measurement": "MIC", "setting": "[37]", "value": "≥ 64.4", "unit": "µM"}, {"measurement": "MIC", "setting": "[38]", "value": "≥ 32.2", "unit": "µM"}, {"measurement": "MIC", "setting": "[39]", "value": 4.69, "unit": "µM"}, {"measurement": "MIC", "setting": "[40]", "value": "5.02 µM and 4.02 µM"}, {"measurement": "MIC", "setting": "[41]", "value": 4.02, "unit": "µM"}, {"measurement": "MIC", "setting": "[42]", "value": 3.13, "unit": "µM"}, {"measurement": "MIC", "setting": "[43]", "value": 6.25, "unit": "µM"}, {"measurement": "MIC", "setting": "[44]", "value": 6.25, "unit": "µM"}]}, {"smiles": "CC(C)C[C@H](NC(=O)[C@H](CCCCN)NC(=O)[C@H](CCC(N)=O)NC(=O)[C@H](CCCCN)NC(=O)[C@H](CC(C)C)NC(=O)[C@H](CC(C)C)NC(=O)[C@H](CCC(N)=O)NC(=O)[C@H](CC(C)C)NC(=O)[C@H](CC(C)C)NC(=O)[C@@H]1CCCN1C(=O)[C@H](CCCN=C(N)N)NC(=O)[C@H](CC(C)C)NC(=O)[C@H](CC(C)C)NC(=O)[C@@H](N)CCCN=C(N)N)C(=O)N[C@@H](CCCN=C(N)N)C(=O)O", "note": "[RLLRPLLQLLKQKLR]", "values": [{"measurement": "MIC", "setting": "[45]", "value": 16, "unit": "µM"}, {"measurement": "MIC", "setting": "[46]", "value": 1, "unit": "µM"}, {"measurement": "MIC", "setting": "[47]", "value": 8, "unit": "µM"}, {"measurement": "MIC", "setting": "[13]", "value": 1, "unit": "µM"}]}, {"smiles": "CC[C@H](C)[C@H](NC(C)=O)C(=O)N[C@@H](Cc1cnc[nH]1)C(=O)NCC(=O)N[C@@H](CC(C)C)C(=O)N[C@H](C(N)=O)C(C)C", "note": "[IHGLV]", "values": [{"measurement": "MIC", "setting": "[48]", "value": "≥ 186", "unit": "µM"}]}]}
